Laboratory results: US4985447A, “Certain benzoquinones, naphthoquinones and derivatives thereof which exhibit thromboxane A2 synthetase inhibition or receptor antagonism and the like” (Takeda Chemical Industries, Ltd., priority 1986, dated 1991)

How the values were obtained:
[1] = biological target: T1, Thromboxane A2 (TXA2) synthetase (Equus caballus, UniProt A0A9L0T8T9); experiment: Inhibition of Thromboxane A2 (TXA2) synthetase (horse platelet microsome); type: biochemical; settings: read-out: Inhibition of Thromboxane A2 (TXA2) synthetase; for inhibition at 1 µM: 10^-6 M; for inhibition at 0.1 µM: 10^-7 M
T1 sequence (A0A9L0T8T9 2-534): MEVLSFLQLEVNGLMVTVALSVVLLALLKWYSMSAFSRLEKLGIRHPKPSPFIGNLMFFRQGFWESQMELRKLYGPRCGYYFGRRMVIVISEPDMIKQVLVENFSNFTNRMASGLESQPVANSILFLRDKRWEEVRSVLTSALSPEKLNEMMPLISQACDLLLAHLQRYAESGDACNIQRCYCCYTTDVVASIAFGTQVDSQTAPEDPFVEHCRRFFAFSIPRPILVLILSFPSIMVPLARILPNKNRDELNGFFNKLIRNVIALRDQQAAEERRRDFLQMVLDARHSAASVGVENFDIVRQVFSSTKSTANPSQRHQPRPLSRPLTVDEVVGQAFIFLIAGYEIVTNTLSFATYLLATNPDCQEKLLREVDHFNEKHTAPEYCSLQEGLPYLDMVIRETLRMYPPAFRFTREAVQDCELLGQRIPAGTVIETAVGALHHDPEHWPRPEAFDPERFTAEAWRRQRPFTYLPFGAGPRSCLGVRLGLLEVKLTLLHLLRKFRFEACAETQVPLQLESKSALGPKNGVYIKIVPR
Protocol: Inhibition of Thromboxane A2 (TXA2) synthetase
(§1) As a preparation of TXA2 synthetase, horse platelet microsome treated with indomethacin (indomethacin-treated horse platelet microsome: IPM) according to the method of Needleman et al. (Science 193 163, 1979) was used. To 60 μl of the solution of IPM in 50 mM Tris buffer(pH 7.5) (containing 140 μg on the protein basis), 60μof a solution containing a drug at a variable concentration was added and kept still at room temperature for 5 minutes. One hundred μl of this mixture was taken, to which 20 μl of a buffer containing 30 ng cf prostaglandin H2 (PGH2) with ice-cooling and kept still at 0° C. for 5 minutes to produce thromboxane A2 (TXA2). The reaction was stopped by addition of 500 μl of Tris buffer, and 50 μl of the resultant solution was subjected to radioimmunoassay of thromboxane B2 (TXB2), a stable metabolite of TXA2 [Shibouta et al. Biochem. Pharmacol. 28 3601, 1979]. The rate of inhibition (%) of TXA2 synthetase was determined from the difference in TXB2 productivity between the untreated group and the treated group.
as §1, with “60 μl of” for “60μof”, “of” for “cf”

[2] = system: lipid peroxide in rat brain homogenate; experiment: Inhibition of production of lipid peroxide in rat brain homogenate; type: biochemical, rat (Sprague-Dawley)
Protocol: Procedure: Sprague-Dawley rats (male, 9-15 weeks old) anesthetized with pentobarbital (50 mg/kg, intraperitoneal administration) were venesected and the brain tissue was resected. The tissue was homogenized in phosphate buffer (pH 7.4), and used as a 5% homogenate (on weight basis). The brain homogenate was allowed to react at 37° C. for 1 hour, and the amount of lipid peroxide produced was determined with the thiobarbituric acid method according to the method of Okawa et al. (Analytical Biochem 95 551, 1979). The drug was added to the 5% homogenate before the reaction at 37° C. for 1 hour so that the final concentration might be 5×10^-7 or 10^-6 M. Inhibition of production of lipid peroxide was expressed as the rate of inhibition in % of the amount produced in the solvent(DMSO)-treated group.

| SMILES | inhibition at 1 µM [1] | inhibition at 0.1 µM [1] | Inhibition of production of lipid peroxide in rat brain homogenate ([2]; 5 × 10^-7 M) | Inhibition of production of lipid peroxide in rat brain homogenate ([2]; 10^-6 M) |
| --- | --- | --- | --- | --- |
| CC1=C(C)C(=O)C(C(C)c2cccnc2)=C(C)C1=O (centres unmarked) [Compound No. 1, 3,5,6-trimethyl-2-[1-(3-pyridyl)ethyl]-1,4-benzoquinone] | 76% | 37% | 6% | 90% |
| CC1=C(C)C(=O)C(C(CCCCCC(=O)O)c2cccnc2)=C(C)C1=O (centres unmarked) [Compound No. 13, 7-(3-pyridyl)-7-(3,5,6-trimethyl-1,4-benzoquinon-2-yl)heptanoic acid] | 87% | 48% | 20% | 84% |
